The source made the active and inactive calls. The rule behind the calls is not given here.
System: Cortical neurone
Assay: Induction of dendrite extension in rat cortical neurons assessed as inhibition of amyloid beta (25 to 35)-induced neuronal degeneration at 1 uM after 4 days by fluorescence microscopic analysis
Assay type: functional

For `CC/C=C\CCCCCCCCC/C=C\CCCCCCCCCCC(=O)O`, which Activity is on record?
The Activity was “Active”.

`CC/C=C\CCCCCCCCC/C=C\CCCCCCCCCCCCCCCCCCCCCC(=O)O` was tested. Which Activity did it give?
Its Activity is “Active”.

For `CCCCCCCCCC/C=C\CCCCCCCCCC(=O)O`, which Activity is on record?
Its Activity is “Active”.

For `CCCCCCCCCCCCC/C=C\CCCCCCCCCCCCC(=O)O`, which Activity is on record?
The Activity was “Active”.

With `CC/C=C\CCCCCCCCC/C=C\CCC(=O)O` as the molecule, how does the Activity read?
Its Activity is “Active”.

Which Activity does the source give for `CC/C=C\CCCCCCCCC/C=C\CCCCCCCCCCCCCCCCCCCCCCCCCCCCCC(=O)O` here?
The Activity was “Active”.

`CCCCCCCCCCCCC/C=C\CCCCCCCCCCCCCCCCCCCCCC(=O)O` was tested. Which Activity did it give?
The Activity was “Active”.

How did the Activity turn out when `CC/C=C\CCCCCCCCC/C=C\CCCCCCCC(=O)O` was run?
Its Activity is “Active”.

For `CCCCCCCCCCCCCCCCCCCCCCCCCCCC(=O)O`, which Activity is on record?
The Activity was “Active”.

Which Activity does the source give for `CCCCCCCCCCCCCCCCC/C=C\CCCCCCCCCCCCCCCCCCCCCC(=O)O` here?
Its Activity is “Active”.

For `CCCCCCCCCC/C=C\C/C=C\CCCCCCCCCCCCCCCCCCCCCC(=O)O`, which Activity is on record?
The Activity was “Active”.

For `CCCCC/C=C\CCCCCC/C=C\CCCCCCCCCCCCCCCCCCCCCC(=O)O`, which Activity is on record?
The Activity was “Active”.

For `CCCCCCCCCCCCC/C=C\CCCCCCCCCCCCCO`, which Activity is on record?
Its Activity is “Active”.

How did the Activity turn out when `CCCCCCCCCCCCC/C=C\CCCCCCCCCCCCCCCCCCCCCCO` was run?
Its Activity is “Active”.

With `CCCCCCCCCCCCCCCCCCCCCC(=O)O` as the molecule, how does the Activity read?
The Activity was “Active”.

With `CCCCCCC/C=C\CCCC/C=C\CCCCCCCCCCCCCCCCCCCCCC(=O)O` as the molecule, how does the Activity read?
Its Activity is “Active”.

For `CCCCCCCCCCCCCCCCCCCCCCCCCCCCCCCCCCCCC(=O)O`, which Activity is on record?
Its Activity is “Active”.
